Assay results reported in PMC9026127, “A Leucyl-tRNA Synthetase Urzyme: Authenticity of tRNA Synthetase Catalytic Activities and Promiscuous Phosphorylation of Leucyl-5′AMP” (International Journal of Molecular Sciences, 2022).

Tests used:
Ec LeuRS = target: T1, Ec LeuRS (Escherichia coli, UniProt P07813); conditions: leucine activation; 50 mM HEPES pH 7.5, 10 mM MgCl2, 10 μM ATP, 50 mM amino acid, pyrophosphatase
T1 construct: gene leuS

[1] = target: T2, LeuAC (LeuRS urzyme), TEV-cleaved (Pyrococcus horikoshii, UniProt O58698); assay: Sephadex G15 size-exclusion co-elution of [^[…]] leucine label; assay type: binding; conditions: labelled compound; formed in situ from [^14C] leucine and ATP, presumed leucyl-5′AMP; 50 mM HEPES pH 7.5, 20 mM MgCl2, 37 °C; only a simulated upper limit for KD
T2 construct: gene leuS; MBP fusion (pMAL-c2x, E. coli), TEV-cleaved but MBP not separated; his-tagged

P. horikoshii LeuRS = target: T3, P. horikoshii LeuRS (Pyrococcus horikoshii, UniProt O58698); assay: nitrocellulose filter binding, [^[…]] leucine; conditions: labelled compound; formed in situ from 25 μM [^14C] leucine and 50 μM ATP, presumed leucyl-5′AMP; pH 7.5, 20 mM MgCl2, 37 °C
T3 construct: gene leuS; full length, synthetic gene in pET-11a, E. coli BL21-CodonPlus(DE3)-RIPL, Ni-NTA purified (tag not described), heat step 80 °C
T3 sequence (O58698 1-967): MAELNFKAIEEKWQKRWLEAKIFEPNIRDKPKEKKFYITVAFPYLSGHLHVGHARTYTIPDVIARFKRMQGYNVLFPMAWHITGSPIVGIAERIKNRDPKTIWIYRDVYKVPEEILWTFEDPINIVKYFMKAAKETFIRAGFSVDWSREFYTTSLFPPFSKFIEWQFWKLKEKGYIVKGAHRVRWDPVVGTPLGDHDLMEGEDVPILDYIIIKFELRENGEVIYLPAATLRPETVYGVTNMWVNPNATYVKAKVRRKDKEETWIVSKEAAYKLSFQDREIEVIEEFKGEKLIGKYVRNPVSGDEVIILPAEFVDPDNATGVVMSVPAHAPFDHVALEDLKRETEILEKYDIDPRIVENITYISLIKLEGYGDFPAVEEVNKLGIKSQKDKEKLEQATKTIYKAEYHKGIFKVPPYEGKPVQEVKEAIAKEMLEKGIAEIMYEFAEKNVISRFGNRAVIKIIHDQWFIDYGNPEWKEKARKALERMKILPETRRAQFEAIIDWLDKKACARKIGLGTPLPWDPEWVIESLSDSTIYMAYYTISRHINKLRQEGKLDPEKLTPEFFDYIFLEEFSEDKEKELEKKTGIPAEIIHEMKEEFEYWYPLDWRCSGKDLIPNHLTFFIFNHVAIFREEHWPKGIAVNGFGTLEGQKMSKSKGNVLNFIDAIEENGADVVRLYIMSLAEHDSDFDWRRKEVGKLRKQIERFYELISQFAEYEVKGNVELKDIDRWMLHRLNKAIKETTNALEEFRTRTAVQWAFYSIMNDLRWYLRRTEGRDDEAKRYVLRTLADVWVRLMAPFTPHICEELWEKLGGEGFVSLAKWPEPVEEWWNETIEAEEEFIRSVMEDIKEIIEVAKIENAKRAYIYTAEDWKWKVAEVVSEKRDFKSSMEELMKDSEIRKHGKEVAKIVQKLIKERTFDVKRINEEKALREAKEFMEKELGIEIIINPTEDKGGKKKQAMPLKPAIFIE

purified protein = substrate: CC(C)C[C@H](N)C(=O)O; assay: purified protein; assay type: biochemical, Pyrococcus horikoshii; conditions: unit not printed beside the value (M inferred), tRNA^Leu and ATP co-substrates, 50 mM HEPES pH 7.5, 10 mM MgCl2

T1 sequence (P07813 whole entry): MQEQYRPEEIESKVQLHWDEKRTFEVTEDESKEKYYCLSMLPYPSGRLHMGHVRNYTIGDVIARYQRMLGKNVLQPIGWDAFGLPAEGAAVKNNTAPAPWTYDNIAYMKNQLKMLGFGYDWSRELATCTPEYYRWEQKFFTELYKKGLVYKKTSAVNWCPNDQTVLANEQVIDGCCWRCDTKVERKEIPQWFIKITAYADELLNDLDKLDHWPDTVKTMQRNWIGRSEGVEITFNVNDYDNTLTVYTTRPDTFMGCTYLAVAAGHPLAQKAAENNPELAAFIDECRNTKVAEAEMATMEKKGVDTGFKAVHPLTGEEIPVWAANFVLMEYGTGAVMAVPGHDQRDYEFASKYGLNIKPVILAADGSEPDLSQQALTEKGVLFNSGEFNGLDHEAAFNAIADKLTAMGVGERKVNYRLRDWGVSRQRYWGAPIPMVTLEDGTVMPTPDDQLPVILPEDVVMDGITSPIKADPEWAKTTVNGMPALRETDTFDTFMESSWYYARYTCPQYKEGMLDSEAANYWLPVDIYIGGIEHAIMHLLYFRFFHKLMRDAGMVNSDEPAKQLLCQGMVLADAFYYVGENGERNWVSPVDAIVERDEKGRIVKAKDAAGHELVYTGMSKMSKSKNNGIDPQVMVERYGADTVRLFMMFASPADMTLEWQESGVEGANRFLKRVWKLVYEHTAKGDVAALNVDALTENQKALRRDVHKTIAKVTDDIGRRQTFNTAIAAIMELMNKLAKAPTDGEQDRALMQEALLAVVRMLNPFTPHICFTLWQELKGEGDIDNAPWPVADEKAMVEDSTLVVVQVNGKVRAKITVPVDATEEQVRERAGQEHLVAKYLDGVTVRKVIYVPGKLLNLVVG

Nc1ncnc2c1ncn2[C@@H]1O[C@H](COP(=O)(O)OP(=O)(O)OP(=O)(O)O)[C@@H](O)[C@H]1O [ATP] was tested, and the “single-turnover active-site titration, [^32P] ATP, TLC” value (Ec LeuRS) was “Full-length LeuRS from both E. coli and P. horikoshii produce minor amounts of ADP”.

With CC(C)C[C@H](N)C(=O)OP(=O)(O)OC[C@H]1O[C@@H](n2cnc3c(N)ncnc32)[C@H](O)[C@@H]1O [leucyl-5′AMP] the “Sephadex G15 size-exclusion co-elution of [^14C] leucine label” value [1] was “lower limit on both the stoichiometry and affinity of the active LeuAC•leucyl-5′ AMP complex” and the “moles [^14C] leucine/mole enzyme” value (P. horikoshii LeuRS) was 0.48 ± 0.13 mol/mol.

B1: P. horikoshii LeuRS (Pyrococcus horikoshii OT3) (protein)
chain: T3 sequence (O58698 1-967)
notes: full length, synthetic gene in pET-11a, E. coli BL21-CodonPlus(DE3)-RIPL, Ni-NTA purified (tag not described), heat step 80 °C
In the case of B1, the Km (purified protein) is reported as 5.9 ± 0.8 × 10^−6 M.
